Measured values published in patent US11999727B2 (Tango Therapeutics, Inc., priority 2020, dated 2024).

Assays:
[1] = test system: HAP1 MTAP-intact cell line; test: SDMA in-cell western assay, HAP1 MTAP-intact; format: cell-based; settings: Homo sapiens, HAP1, SDMA in-cell western, HAP1 MTAP-intact; read-out: MTAP HAP1 intact IC50
Procedure, shortened: (§1)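 IC50 values come from SDMA signal quantified by in-cell western in two HAP1 lines, one with native MTAP levels and one lacking MTAP.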

[2] = target: T1, PRMT5 (Homo sapiens, UniProt O14744); test: PRMT5 biochemical IC50 assay with MTA as cofactor; settings: PRMT5, MTA as cofactor; read-out: MTA IC50
T1 construct: purchased Viva (custom protein)
T1 sequence (O14744 whole entry): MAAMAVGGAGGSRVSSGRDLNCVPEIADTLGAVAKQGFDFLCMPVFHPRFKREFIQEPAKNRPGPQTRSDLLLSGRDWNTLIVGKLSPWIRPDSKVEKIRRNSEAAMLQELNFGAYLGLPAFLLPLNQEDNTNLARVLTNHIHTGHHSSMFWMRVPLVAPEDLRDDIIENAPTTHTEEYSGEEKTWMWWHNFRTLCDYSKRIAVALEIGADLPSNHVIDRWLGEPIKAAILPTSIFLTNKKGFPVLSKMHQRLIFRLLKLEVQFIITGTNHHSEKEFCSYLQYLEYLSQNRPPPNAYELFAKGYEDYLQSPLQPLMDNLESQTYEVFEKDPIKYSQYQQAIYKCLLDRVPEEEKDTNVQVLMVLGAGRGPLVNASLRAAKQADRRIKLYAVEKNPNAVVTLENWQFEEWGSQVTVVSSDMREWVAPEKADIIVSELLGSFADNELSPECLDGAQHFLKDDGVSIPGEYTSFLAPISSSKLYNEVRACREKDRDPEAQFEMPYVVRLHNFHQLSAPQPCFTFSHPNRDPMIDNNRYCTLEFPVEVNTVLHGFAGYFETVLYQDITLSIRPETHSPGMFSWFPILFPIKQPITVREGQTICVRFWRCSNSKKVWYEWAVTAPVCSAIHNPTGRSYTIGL
T1 sequence (Q9BQA1 whole entry partner): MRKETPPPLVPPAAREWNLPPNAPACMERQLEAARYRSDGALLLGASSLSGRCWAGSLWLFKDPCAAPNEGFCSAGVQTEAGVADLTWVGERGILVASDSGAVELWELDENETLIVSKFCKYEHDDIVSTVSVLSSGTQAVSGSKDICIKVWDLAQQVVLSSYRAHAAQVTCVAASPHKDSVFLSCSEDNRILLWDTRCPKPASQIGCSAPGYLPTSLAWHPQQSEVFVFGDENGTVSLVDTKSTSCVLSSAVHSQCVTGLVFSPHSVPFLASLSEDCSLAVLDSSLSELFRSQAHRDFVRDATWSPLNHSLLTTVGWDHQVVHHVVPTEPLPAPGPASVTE

[3] = test system: HAP1 MTAP-deleted cell line; test: SDMA in-cell western assay, HAP1 MTAP-deleted; format: cell-based; settings: for IC50: Homo sapiens, HAP1, SDMA in-cell western, HAP1 MTAP-deleted, read-out: HAP 1 MTAP deleted IC50; for MTAP intact/deleted ratio: IC50 ratio HAP1 MTAP-intact / HAP1 MTAP-deleted, SDMA in-cell western
Procedure, shortened: as §1

[4] = target: T1, PRMT5; test: PRMT5 biochemical IC50 assay with SAM as cofactor; settings: PRMT5, SAM as cofactor; read-out: SAM IC50
[5] = test system: HAP1 MTAP-deleted cell line; test: Viability assay, MTAP-deleted cell line; format: cell-based; settings: Homo sapiens, HAP1, viability assay, MTAP-deleted cell line; read-out: HAP1 MTAP deleted viability
Description: Table 1 additionally indicates IC50 values in a viability assay for the MTAP-deleted cell line (column 10), indicating the effect of treatment with compound on cell survival.

[6] = target: T1, PRMT5; test: PRMT5 biochemical IC50 assay with no cofactor; settings: PRMT5, no cofactor; read-out: No Cofactor/rel IC50
Description: Table 1 indicates IC50 values (μM) against PRMT5 for exemplary compounds in the presence of SAM as cofactor, with no cofactor, and with MTA as cofactor, respectively (columns 4-6). […] Ki values can be calculated from the IC50 values as described in the Examples section. As detailed in the Examples section, for the assay performed in the presence of SAM, IC50=Ki×1.5 (Ki=IC50/1.5).

SMILES | IC50 [1] [nM] | IC50 [2] [nM] | IC50 [3] [nM] | IC50 [4] [nM] | IC50 [6] [nM] | MTAP intact/deleted ratio [3] | IC50 [5] [nM]
Cc1cc(NC(=O)C(=O)N2C[C@H](C)CC[C@H]2c2ccc3c(=O)[nH]ccc3c2)cnc1N (single isomer, unassigned) [Compound 953] | > 1000 | 50 to 500 | 100 to 1000 | > 500 | > 500 | A (an IC50 ratio greater than or equal to 10 fold) | > 10000
Cc1cc(NC(=O)C(=O)N2C[C@H](C)CC[C@H]2c2ccc3sc(C(F)(F)F)nc3c2)cnc1N (single isomer, unassigned) [Compound 959] | > 1000 | > 500 | > 1000 | > 500 | > 500 | B (an IC50 ratio greater than or equal to 3 fold but lower than 10 fold) | > 10000
Cc1cc(NC(=O)C(=O)N2C[C@H](C)CC[C@H]2c2cccc3scnc23)cnc1N (single isomer, unassigned) [Compound 960] | > 1000 | < 50 | 100 to 1000 | 50 to 500 | 50 to 500 | A (an IC50 ratio greater than or equal to 10 fold) | 1000 to 10000
Cc1cc(NC(=O)C(=O)N2C[C@@H](C)CC[C@@H]2c2ccc3c(=O)[nH]ccc3c2)cnc1N (single isomer, unassigned) [Compound 961] | > 1000 | < 50 | < 100 | > 500 | 50 to 500 | A (an IC50 ratio greater than or equal to 10 fold) | 1000 to 10000
Cc1cc(NC(=O)C(=O)N2C[C@H](C)CC[C@H]2c2cccc3c2CCN3)cnc1N (single isomer, unassigned) [Compound 962] | > 1000 | < 50 | 100 to 1000 | 50 to 500 | 50 to 500 | A (an IC50 ratio greater than or equal to 10 fold) | 1000 to 10000
Cc1nc2cc([C@@H]3CC[C@@H](C)CN3C(=O)C(=O)Nc3cnc(N)c(C)c3)ccc2[nH]1 (single isomer, unassigned) [Compound 963] | > 1000 | > 500 | > 1000 | > 500 | > 500 | B (an IC50 ratio greater than or equal to 3 fold but lower than 10 fold) | > 10000
Cc1cc(NC(=O)C(=O)N2C[C@@H](C)CC[C@@H]2c2cccc3[nH]cnc23)cnc1N (single isomer, unassigned) [Compound 964] | > 1000 | > 500 | > 1000 | > 500 | > 500 | C (an IC50 ratio of less than 3 fold) | > 10000
COc1ncc(NC(=O)C(=O)N2C[C@H](C)CC[C@H]2c2cc(Cl)cc(Cl)c2)cc1C(N)=O (single isomer, unassigned) [Compound 965] | > 1000 | > 500 | > 1000 | > 500 | > 500 | B (an IC50 ratio greater than or equal to 3 fold but lower than 10 fold) | > 10000
CCc1cc(NC(=O)C(=O)N2C[C@H](C)CC[C@H]2c2cc(Cl)cc(Cl)c2)cnc1N (single isomer, unassigned) [Compound 966] | > 1000 | 50 to 500 | > 1000 | > 500 | > 500 | B (an IC50 ratio greater than or equal to 3 fold but lower than 10 fold) | > 10000
CCc1cc(NC(=O)C(=O)N2C[C@@H](C)CC[C@@H]2c2cc3[nH]ncc3s2)cnc1N (single isomer, unassigned) [Compound 967] | > 1000 | > 500 | > 1000 | > 500 | > 500 | B (an IC50 ratio greater than or equal to 3 fold but lower than 10 fold) | > 10000

Continued, in another order:

IC50 [1] [nM] | IC50 [2] [nM] | IC50 [3] [nM] | IC50 [4] [nM] | IC50 [6] [nM] | SMILES | MTAP intact/deleted ratio [3] | IC50 [5] [nM]
100 to 1000 | < 50 | < 100 | 50 to 500 | 50 to 500 | Cc1nc2cc([C@H]3CC[C@H](C)CN3C(=O)C(=O)Nc3cnc(N)c(C)c3)ccc2[nH]1 (single isomer, unassigned) [Compound 947] | A (an IC50 ratio greater than or equal to 10 fold) | < 1000
> 1000 | < 50 | < 100 | 50 to 500 | 50 to 500 | Cc1cc(NC(=O)C(=O)N2C[C@H](C)CC[C@H]2c2ccc3[nH]nc(N)c3c2)cnc1C (single isomer, unassigned) [Compound 948] | A (an IC50 ratio greater than or equal to 10 fold) | < 1000
> 1000 | < 50 | 100 to 1000 | 50 to 500 | 50 to 500 | Cc1cc(NC(=O)C(=O)N2C[C@H](C)CC[C@H]2c2cccc3[nH]cnc23)cnc1N (single isomer, unassigned) [Compound 949] | A (an IC50 ratio greater than or equal to 10 fold) | 1000 to 10000
> 1000 | > 500 | > 1000 | > 500 | > 500 | COc1ncc(NC(=O)C(=O)N2C[C@H](C)CC[C@H]2c2cc3cn[nH]c3s2)cc1C(N)=O (single isomer, unassigned) [Compound 950, 2-methoxy-5-(2-(5-methyl-2-(1H-thieno[2,3-c]pyrazol-5-yl)piperidin-1-yl)-2-oxoacetamido)nicotinamide] | B (an IC50 ratio greater than or equal to 3 fold but lower than 10 fold) | > 10000
> 1000 | < 50 | < 100 | 50 to 500 | < 50 | CCc1cc(NC(=O)C(=O)N2C[C@@H](C)CC[C@@H]2c2cc(Cl)cc(Cl)c2)cnc1N (single isomer, unassigned) [Compound 951] | A (an IC50 ratio greater than or equal to 10 fold) | 1000 to 10000
> 1000 | > 500 | > 1000 | > 500 | > 500 | COc1ncc(NC(=O)C(=O)N2C[C@H](C)CC[C@H]2c2cc3[nH]ncc3s2)cc1C(N)=O (single isomer, unassigned) [Compound 952, 2-methoxy-5-(2-(5-methyl-2-(1H-thieno[3,2-c]pyrazol-5-yl)piperidin-1-yl)-2-oxoacetamido)nicotinamide] | B (an IC50 ratio greater than or equal to 3 fold but lower than 10 fold) | > 10000
100 to 1000 | < 50 | < 100 | 50 to 500 | < 50 | CCc1cc(NC(=O)C(=O)N2C[C@H](C)CC[C@H]2c2cc3[nH]ncc3s2)cnc1N (single isomer, unassigned) [Compound 955] | A (an IC50 ratio greater than or equal to 10 fold) | < 1000
100 to 1000 | < 50 | < 100 | 50 to 500 | < 50 | COc1ncc(NC(=O)C(=O)N2C[C@@H](C)CC[C@@H]2c2cc3cn[nH]c3s2)cc1C(N)=O (single isomer, unassigned) [Compound 968, 2-methoxy-5-(2-(5-methyl-2-(1H-thieno[2,3-c]pyrazol-5-yl)piperidin-1-yl)-2-oxoacetamido)nicotinamide] | A (an IC50 ratio greater than or equal to 10 fold) | < 1000
